Test results: patent US20240352029A1, “CDK Inhibitors And Their Use As Pharmaceuticals” (Prelude Therapeutics Incorporated, priority 2023, published 2024)

Assays:
CDK2/Cyclin E2 = CDK2/Cyclin E2 (Homo sapiens, UniProt P24941); assay: CDK2/CyclinE2 enzymatic activity assay (TR-FRET); type: biochemical; conditions: ATP 1 mM final, read-out: CDK2_E1 IC50
Procedure: CDK2/CyclinE2 Enzymatic Activity Assay
(§1) The inhibitory activity of compounds was evaluated in vitro using TR-FRET assay with white 384-well low volume microplate (Greiner Bio-One). CDK2/Cyclin E2 catalyzed phosphorylation of peptide in the presence and absence of compounds was measured and used in IC50 determination. Recombinant protein complex CDK2/Cyclin E2, expressed from insect cell, was purchased from ProQinase. Testing compounds were dissolved in DMSO at 1 mM and tested in 9-dose IC50 mode. The reaction mixture was prepared by mixing CDK2/CyclinE2 (1 nM final), ULight-4E-BP1 (50 nM final, Perkinelmer, TRF0128-D), and ATP (1 mM final) in assay buffer (20 mM of HEPES pH 7.4, 1 mM of EGTA, 0.05% BSA, 0.005% Tween 20, and 1 mM TCEP). The compound of interest in DMSO was added to each well in 3-fold serial dilution by dispenser (TECAN D300E) to make a 9.9 μL of reaction mixture. After 20 minutes preincubation at room temperature, 0.1 μL MgCl2 (10 mM final) was added to initiate the reaction. Following a 45 minutes incubation at 37° C., the reaction was stopped by addition of 2 μL of quenching buffer consisting of Lance detection buffer (Perkinelmer CR97-100C), LANCE Ultra Europium-anti-P-4E-BP1 (Perkinelmer, TRF0216-D), EDTA, and incubate at room temperature for additional 60 minutes in dark. The reaction signal was measured by Envision multimode plate reader (PerkinElmer, 2102-0010). IC50 values were determined by fitting the data to the standard 4 parameters with Hill Slope using GraphPad Prism software.

OVCAR3 p-RB = assay: pRB ICW assay in OVCAR3 cells; type: cell-based; conditions: Homo sapiens, OVCAR-3, 2 hours incubation with compound
Procedure: pRB ICW Assay in OVCAR3 Cells
OVCAR3 cells were maintained in RPMI (Corning, Catalog #: 10-040-CV) supplemented with 10% v/v FBS (Gibco, Catalog #: 26140-079), 1% v/v Penicillin Streptomycin (Gibco, Catalog #15140-122.) OVCAR3 cells grown at log phase were trypsinized, counted, and resuspended in fresh medium to reach a final density of 6.7e4 cells/ml and 75 μL of culture were dispensed into a 384-well plate (Falcon, cat #353962) using Multidrop Combi dispenser (Thermo Scientific). The next day, compounds were dispensed as a 9-point, ½ log serial dilution using a Tecan digital dispenser (D300e), and cells were incubated with compound for 2 hours in a humidified incubator at 37° C. A reference compound at a final concentration of 10 μM was used as a control for maximum inhibition. Each compound was tested in duplicates in each experiment. At the end of the incubation, 25 μl of 16% paraformaldehyde (Electron Microscopy, cat #15710) was slowly added to each well and the plate was incubated at room temperature (RT) for 30 minutes to fix cells. Cells were then permeabilized by incubating with 50 μl/well of wash buffer (1×PBS with 0.1% Triton X-100) 5×5 minutes, followed by 1 hour blocking with 30 μl/well of Odyssey blocking buffer (Li—COR, cat #927-40000), all at RT. Anti-phosphor RB antibody (Cell signaling 8516S) was diluted 1:1000 in Odyssey blocking buffer and 20 μl was added to all wells and incubated overnight in 4° C. with gently rocking. The next day, cells were washed 5×5 min with 50 μl/well of wash buffer, followed with 1 hour incubation with secondary antibody and DRAQ5 diluted in Odyssey blocking buffer (1:500 dilution for secondary antibody and 1:2000 dilution for DRAQ5), 5×5 min washes, and one last wash with water. Plates were dried in 37° C. oven for 5 min and scanned using Li—COR Odyssey CLx imaging system to acquire intensities at 700 and 800 nm channels.

CDK4/Cyclin D1 = target: T1, CDK4/Cyclin D1 (Homo sapiens, UniProt P11802); assay: CDK4/CyclinD1 enzymatic activity assay (TR-FRET); type: biochemical; conditions: ATP 2 mM final, read-out: CDK4_D1 IC50
T1 construct: purchased ProQinase; host or cells: insect cell
Procedure: CDK4/CyclinD1 Enzymatic Activity Assay
as §1, with “Bio-One). CDK4/Cyclin D1” for “Bio-One). CDK2/Cyclin E2”, “complex CDK4/Cyclin D1,” for “complex CDK2/Cyclin E2,”, “mixing CDK4/CyclinD1” for “mixing CDK2/CyclinE2”, “ULight-4E-BP1 (100” for “ULight-4E-BP1 (50”, “ATP (2” for “ATP (1”

T1 sequence (P11802 whole entry): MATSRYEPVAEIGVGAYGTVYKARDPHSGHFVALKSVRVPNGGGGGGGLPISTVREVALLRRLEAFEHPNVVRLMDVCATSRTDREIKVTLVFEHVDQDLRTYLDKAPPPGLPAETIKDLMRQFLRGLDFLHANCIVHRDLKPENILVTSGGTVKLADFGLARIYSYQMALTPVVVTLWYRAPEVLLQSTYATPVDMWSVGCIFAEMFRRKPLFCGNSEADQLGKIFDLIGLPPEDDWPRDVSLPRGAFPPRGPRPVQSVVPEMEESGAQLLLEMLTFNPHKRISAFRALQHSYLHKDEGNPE
T1 sequence (P24385 whole entry partner): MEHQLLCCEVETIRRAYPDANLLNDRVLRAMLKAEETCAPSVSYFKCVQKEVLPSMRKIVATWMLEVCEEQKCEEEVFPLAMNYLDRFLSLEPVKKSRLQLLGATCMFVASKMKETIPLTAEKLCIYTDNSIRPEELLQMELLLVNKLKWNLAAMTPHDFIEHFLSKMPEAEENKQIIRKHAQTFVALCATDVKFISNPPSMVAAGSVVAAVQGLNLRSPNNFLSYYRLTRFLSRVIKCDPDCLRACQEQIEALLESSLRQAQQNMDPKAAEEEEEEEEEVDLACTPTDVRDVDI

Structure (SMILES) | IC50 (CDK2/Cyclin E2) | IC50 (OVCAR3 p-RB) | IC50 (CDK4/Cyclin D1)
O=C1NCc2sc(-c3nc(N[C@H]4CCN(S(=O)(=O)c5cn[nH]c5)C[C@H]4F)ncc3C(F)(F)F)cc21 [Example 22, 2-(2-(((3R,4S)-1-((1H-pyrazol-4-yl)sulfonyl)-3-fluoropiperidin-4-yl)amino)-5-(trifluoromethyl)pyrimidin-4-yl)-5,6-dihydro-4H-thieno[2,3-c]pyrrol-4-one] | ≤ 100 nM | ≤ 100 nM | 
C[C@@H]1CN(S(=O)(=O)c2cnn(C)c2)CC[C@@H]1Nc1ncc(C(F)(F)F)c(-c2cc3c(s2)CNC3=O)n1 [Example 21, 2-(2-(((3R,4S)-3-methyl-1-((1-methyl-1H-pyrazol-4-yl)sulfonyl)piperidin-4-yl)amino)-5-(trifluoro-methyl)pyrimidin-4-yl)-5,6-dihydro-4H-thieno[2,3-c]pyrrol-4-one] | ≤ 100 nM | ≤ 100 nM | ≤ 100 nM
Cn1cnc(S(=O)(=O)N2CC[C@H](Nc3ncc(C(F)(F)F)c(-c4cc5c(s4)C(C)(C)NC5=O)n3)[C@H](F)C2)c1 [Example 15, 2-(2-(((3R,4S)-3-fluoro-1-((1-methyl-1H-imidazol-4-yl)sulfonyl)piperidin-4-yl)amino)-5-(trifluoro-methyl)pyrimidin-4-yl)-6,6-dimethyl-5,6-dihydro-4H-thieno[2,3-c]pyrrol-4-one] | ≤ 100 nM | ≤ 100 nM | ≤ 100 nM
CS(=O)(=O)N1CCC(Nc2ncc(C(F)(F)F)c(-c3cc4c(s3)C(=O)NC4)n2)CC1 [Example 24, 2-(2-((1-(Methylsulfonyl)piperidin-4-yl)amino)-5-(trifluoromethyl)pyrimidin-4-yl)-4,5-dihydro-6H-thieno[2,3-c]pyrrol-6-one] | ≤ 100 nM | > 500 nM | > 500 nM
CC1(C)NC(=O)c2cc(-c3nc(N[C@@H]4CCN(S(C)(=O)=O)C[C@H]4F)ncc3C(F)(F)F)sc21 [Example 13, 2-(2-(((3R,4R)-3-fluoro-1-(methylsulfonyl)piperidin-4-yl)amino)-5-(trifluoro-methyl)pyrimidin-4-yl)-6,6-dimethyl-5,6-dihydro-4H-thieno[2,3-c]pyrrol-4-one] | ≤ 100 nM | ≤ 100 nM | ≤ 100 nM
Cc1c(-c2nc(N[C@H]3CCN(S(C)(=O)=O)C[C@H]3C)ncc2F)sc2c1C(=O)NC2 [Example 5, 2-(5-Fluoro-2-(((3R,4S)-3-methyl-1-(methylsulfonyl)piperidin-4-yl)amino)pyrimidin-4-yl)-3-methyl-5,6-dihydro-4H-thieno[2,3-c]pyrrol-4-one] | ≤ 100 nM | ≤ 100 nM | 
CS(=O)(=O)N1CC[C@H](Nc2ncc(C(F)(F)F)c(-c3cc4c(s3)CNC4=O)n2)[C@H](F)C1 [Example 19, 2-(2-(((3R,4S)-3-fluoro-1-(methylsulfonyl)piperidin-4-yl)amino)-5-(trifluoro-methyl)pyrimidin-4-yl)-5,6-dihydro-4H-thieno[2,3-c]pyrrol-4-one] | ≤ 100 nM | ≤ 100 nM | 
Cc1c(-c2nc(NC3CCN(S(C)(=O)=O)CC3)ncc2F)sc2c1C(=O)NC2 [Example 4, 2-(5-fluoro-2-((1-(methylsulfonyl)piperidin-4-yl)amino)pyrimidin-4-yl)-3-methyl-5,6-dihydro-4H-thieno [2,3-c]pyrrol-4-one] | ≤ 100 nM | ≤ 100 nM | 

More lines, now with the values ahead:

IC50 (CDK2/Cyclin E2) | IC50 (OVCAR3 p-RB) | IC50 (CDK4/Cyclin D1) | Structure (SMILES)
≤ 100 nM | ≤ 100 nM | ≤ 100 nM | CC1(C)NC(=O)c2cc(-c3nc(NC4CCN(S(C)(=O)=O)CC4)ncc3C(F)(F)F)sc21 [Example 12, 6,6-dimethyl-2-(2-((1-(methylsulfonyl)piperidin-4-yl)amino)-5-(trifluoro-methyl)pyrimidin-4-yl)-5,6-dihydro-4H-thieno[2,3-c] pyrrol-4-one]
≤ 100 nM | 100 to 500 nM |  | C[C@@H]1CN(S(C)(=O)=O)CC[C@@H]1Nc1ncc(C(F)(F)F)c(-c2cc3c(s2)CNC3=O)n1 [Example 18, 2-(2-(((3R,4S)-3-methyl-1-(methylsulfonyl)piperidin-4-yl)amino)-5-(trifluoro-methyl)pyrimidin-4-yl)-5,6-dihydro-4H-thieno[2,3-c]pyrrol-4-one]
≤ 100 nM | ≤ 100 nM | ≤ 100 nM | C[C@@H]1CN(S(=O)(=O)c2c[nH]cn2)CC[C@@H]1Nc1ncc(C(F)(F)F)c(-c2cc3c(s2)C(C)(C)NC3=O)n1 [Example 10, 2-(2-(((3R,4S)-1-((1H-imidazol-4-yl)sulfonyl)-3-methylpiperidin-4-yl)amino)-5-(trifluoro-methyl)pyrimidin-4-yl)-6,6-dimethyl-5,6-dihydro-4H-thieno[2,3-c]pyrrol-4-one]
≤ 100 nM | ≤ 100 nM | ≤ 100 nM | Cn1cc(S(=O)(=O)N2CCC(Nc3ncc(C(F)(F)F)c(-c4cc5c(s4)C(C)(C)NC5=O)n3)CC2)cn1 [Example 11, 6,6-dimethyl-2-(2-((1-((1-methyl-1H-pyrazol-4-yl)sulfonyl)piperidin-4-yl)amino)-5-(trifluoro-methyl)pyrimidin-4-yl)-5,6-dihydro-4H-thieno[2,3-c]pyrrol-4-one]
≤ 100 nM | ≤ 100 nM | ≤ 100 nM | CC1(C)NC(=O)c2cc(-c3nc(N[C@H]4CCN(S(C)(=O)=O)C[C@H]4F)ncc3C(F)(F)F)sc21 [Example 14, 2-(2-(((3R,4S)-3-fluoro-1-(methylsulfonyl)piperidin-4-yl)amino)-5-(trifluoro-methyl)pyrimidin-4-yl)-6,6-dimethyl-5,6-dihydro-4H-thieno[2,3-c]pyrrol-4-one]
≤ 100 nM | ≤ 100 nM | ≤ 100 nM | C[C@@H]1CN(S(=O)(=O)c2cnn(C)c2)CC[C@@H]1Nc1ncc(C(F)(F)F)c(-c2cc3c(s2)C(C)(C)NC3=O)n1 [Example 7, 6,6-dimethyl-2-(2-(((3R,4S)-3-methyl-1-((1-methyl-1H-pyrazol-4-yl)sulfonyl)piperidin-4-yl)amino)-5-(trifluoromethyl)pyrimidin-4-yl)-5,6-dihydro-4H-thieno[2,3-c]pyrrol-4-one]
≤ 100 nM | ≤ 100 nM | ≤ 100 nM | Cn1cc(S(=O)(=O)N2CC[C@@H](Nc3ncc(C(F)(F)F)c(-c4cc5c(s4)C(C)(C)NC5=O)n3)[C@H](F)C2)cn1 [Example 16, 2-(2-(((3R,4R)-3-fluoro-1-((1-methyl-1H-pyrazol-4-yl)sulfonyl)piperidin-4-yl)amino)-5-(trifluoro-methyl)pyrimidin-4-yl)-6,6-dimethyl-5,6-dihydro-4H-thieno[2,3-c]pyrrol-4-one]
